In experiment [1] the test system is CD69 expression on CD19+ B cells in human whole blood. The experiment can be described thus: In Vitro whole blood CD69 Assay. It counts as cell-based. As to conditions: B-cell; human heparinized whole blood, anti-human IgD stimulation overnight, percentage of CD19+ B cells expressing CD69, flow cytometry; read-out: IC50. The procedure:
In Vitro whole blood CD69 Assay
Human heparinized venous blood from health donors was aliquoted into 96-well plate and “spiked” with serial dilutions of formula I compounds in DMSO or with DMSO without drug. The final concentration of DMSO in all wells was 0.1%. The plate was incubated at 37° C. for 30 min. Drug-containing samples were stimulated with […] mouse anti-human IgD-dextran (1A62) or […] polyclonal rabbit F(ab′)2 anti-human IgD. Phosphate-buffered saline (PBS) was added to the negative control unstimulated sample and the plates were incubated overnight (18 to 22 hours) at 37° C. Cells were stained with fluorochrome-conjugated anti-CD19 and anti-CD69 antibodies. Lyse/fix solution was used to remove red blood cells by hypotonic lysis and to fix the remaining cells, which were then analyzed by flow cytometry. CD19+ B cells were gated and analyzed for CD69 expression. The percentage of B cells expressing CD69 was plotted versus the log 10 of the concentration of the drug and the best-fit curves (variable Hill slope) were generated to obtain the IC50 value.
(In general: A flow cytometer gives signals particle by particle.)

In experiment [2] the target is T1, active BTK enzyme (Upstate 14-552) (Homo sapiens, UniProt Q06187).
T1 construct: purchased Upstate 14-552
T1 sequence (Q06187 whole entry): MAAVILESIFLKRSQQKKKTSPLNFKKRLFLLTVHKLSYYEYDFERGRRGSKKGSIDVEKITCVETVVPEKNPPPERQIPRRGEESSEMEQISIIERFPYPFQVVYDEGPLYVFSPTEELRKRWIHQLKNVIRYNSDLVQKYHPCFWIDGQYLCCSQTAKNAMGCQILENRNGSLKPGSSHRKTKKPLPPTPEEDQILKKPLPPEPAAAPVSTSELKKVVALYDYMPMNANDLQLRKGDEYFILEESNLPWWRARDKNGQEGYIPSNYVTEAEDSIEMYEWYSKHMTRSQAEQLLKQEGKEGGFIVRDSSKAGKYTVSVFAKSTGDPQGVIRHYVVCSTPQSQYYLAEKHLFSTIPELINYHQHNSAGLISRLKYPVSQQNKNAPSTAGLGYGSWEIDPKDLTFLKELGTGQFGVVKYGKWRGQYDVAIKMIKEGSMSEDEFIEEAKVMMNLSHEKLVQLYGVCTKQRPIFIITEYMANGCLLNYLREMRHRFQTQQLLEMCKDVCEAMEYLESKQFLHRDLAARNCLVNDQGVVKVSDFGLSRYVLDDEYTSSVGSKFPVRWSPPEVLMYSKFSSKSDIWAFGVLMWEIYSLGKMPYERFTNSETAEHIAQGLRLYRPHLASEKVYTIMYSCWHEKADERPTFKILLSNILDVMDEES
As to the kind of experiment: In Vitro BTK Kinase Assay: Btk-PolyGAT-LS Assay. It counts as biochemical. As to conditions: ATP 10 μM, polyGAT 100 nM, BTK 0.25 nM, 30 minutes, TRF readout. The procedure: In Vitro BTK Kinase Assay: Btk-PolyGAT-LS Assay The purpose of the BTK in vitro assay is to determine compound potency against BTK through the measurement of IC50. Compound inhibition is measured after monitoring the amount of phosphorylation of a fluorescein-labeled polyGAT peptide (Invitrogen PV3611) in the presence of active BTK enzyme (Upstate 14-552), ATP, and inhibitor. The BTK kinase reaction was done in a black 96 well plate (costar 3694). For a typical assay, a 24 μL aliquot of a ATP/peptide master mix (final concentration; ATP 10 μM, polyGAT 100 nM) in kinase buffer (10 mM Tris-HCl pH 7.5, 10 mM MgCl2, 200 μM […], 5 mM DTT, 0.01% Triton X-100, and 0.2 mg/ml casein) is added to each well. Next, […] of a 4-fold, 40× compound titration in 100% DMSO solvent is added, followed by adding 15 μL of BTK enzyme mix in 1× kinase buffer (with a final concentration of 0.25 nM). The assay is incubated for 30 minutes before being stopped with 28 μL of a 50 mM EDTA solution. Aliquots (5 μL) of the kinase reaction are transferred to a low volume white 384 well plate (Coming 3674), and 5 μL of a 2× detection buffer (Invitrogen PV3574, with 4 nM Tb-PY20 antibody, Invitrogen PV3552) is added. The plate is covered and incubated for 45 minutes at room temperature. Time resolved fluorescence (TRF) on Molecular Devices M5 (332 nm excitation; 488 nm emission; 518 nm fluorescein emission) is measured. IC50 values are calculated using a four parameter fit with 100% enzyme activity determined from the DMSO control and 0% activity from the EDTA control.

In the case of `C=CC(=O)N1CCN(c2cnccc2-c2ccc(CNC(=O)c3cn(C(C)(C)C)nn3)c(C)c2)CC1` [Example 49, N-(4-(3-(4-acryloylpiperazin-1-yl)pyridin-4-yl)-2-methylbenzyl)-1-(tert-butyl)-1H-1,2,3-triazole-4-carboxamide], the IC50 (usually the midpoint of a concentration-inhibition curve) in experiment [1] was 100 to 1000 nM; in experiment [2] it was at most 1 nM. Regarding `C=CC(=O)N1CCC[C@H](c2cnccc2-c2ccc(CNC(=O)c3cn(C(C)(C)C)nn3)c(C)c2)C1` (single isomer, unassigned) [Example 24], the IC50 is above 1000 nM in experiment [1] and 1 to 10 nM in experiment [2]. `Cc1cc(-c2ccncc2N2CCN(C(=O)/C=C/CN(C)C)CC2)ccc1[C@@H](C)NC(=O)c1noc(C(C)(C)C)n1` [Example 86, (R,E)-5-(tert-butyl)-N-(1-(4-(3-(4-(4-(dimethylamino)but-2-enoyl)piperazin-1-yl)pyridin-4-yl)-2-methylphenyl)ethyl)-1,2,4-oxadiazole-3-carboxamide]: the IC50 in experiment [1] was 100 to 1000 nM; in experiment [2] it was 1 to 10 nM. With `C=CC(=O)N(C)C1CCCN(c2cnccc2-c2ccc(CNC(=O)c3noc(C(C)(C)C)n3)c(C)c2)C1` (centres unmarked) [Example 12, 5-(tert-butyl)-N-(2-methyl-4-(3-(3-(N-methylacrylamido)piperidin-1-yl)pyridin-4-yl)benzyl)-1,2,4-oxadiazole-3-carboxamide], the IC50 was below 100 nM in experiment [1] and at most 1 nM in experiment [2]. For `C=CC(=O)N(C)C1CCCN(c2cnccc2-c2ccc(CNC(=O)c3ccn(C(C)(C)C)n3)c(C)c2)C1` (centres unmarked) [Example 44, 1-(tert-butyl)-N-(2-methyl-4-(3-(3-(N-methylacrylamido)piperidin-1-yl)pyridin-4-yl)benzyl)-1H-pyrazole-3-carboxamide], the results for the IC50 in experiment [1] and in experiment [2] were above 1000 nM and 1 to 10 nM, respectively. Turning to `C=CC(=O)N(C)C1CCCN(c2cnccc2-c2ccc(CNC(=O)c3cc(C(C)(C)C)on3)c(C)c2)C1` (centres unmarked) [Example 14, 5-(tert-butyl)-N-(2-methyl-4-(3-(3-(N-methylacrylamido)piperidin-1-yl)pyridin-4-yl)benzyl)isoxazole-3-carboxamide], the IC50 in experiment [1] is 100 to 1000 nM; in experiment [2], at most 1 nM. For the compound `C=CC(=O)N(C)C1CCCN(c2cnccc2-c2ccc(CNC(=O)c3cn(C(C)(C)C)nn3)c(C)c2)C1` (centres unmarked) [Example 1, 1-(tert-butyl)-N-(2-methyl-4-(3-(3-(N-methylacrylamido)piperidin-1-yl)pyridin-4-yl)benzyl)-1H-1,2,3-triazole-4-carboxamide], the IC50 in experiment [1] was 100 to 1000 nM; in experiment [2], at most 1 nM.

Turning to `C=CC(=O)N1CCCC(c2cnccc2-c2ccc(CNC(=O)c3noc(C4(C)CC4)n3)c(C)c2)C1` (centres unmarked) [Example 26, N-(4-(3-(1-acryloylpiperidin-3-yl)pyridin-4-yl)-2-methylbenzyl)-5-(1-methylcyclopropyl)-1,2,4-oxadiazole-3-carboxamide], the IC50 in experiment [1] was 100 to 1000 nM; in experiment [2], 1 to 10 nM. Turning to `C=CC(=O)N1CCC[C@H](c2cnccc2-c2ccc(CNC(=O)c3nc(C4(C)CC4)no3)c(C)c2)C1` (single isomer, unassigned) [Example 30], the IC50 in experiment [1] is above 1000 nM; in experiment [2], 1 to 10 nM. The corresponding values for `C=CC(=O)N(C)[C@@H]1CCCN(c2cncc(F)c2-c2ccc(CNC(=O)c3cn(C(C)(C)C)nn3)c(C)c2)C1` [Example 56, 1-tert-butyl-N-[[4-[3-fluoro-5-[(3R)-3-[methyl(prop-2-enoyl)amino]-1-piperidyl]-4-pyridyl]-2-methyl-phenyl]methyl]triazole-4-carboxamide] are 100 to 1000 nM and at most 1 nM. Regarding `C=CC(=O)N(C)[C@H]1CCC(=O)N(c2cnccc2-c2ccc(CNC(=O)c3nnn(C(C)(C)C)n3)c(C)c2)C1` (single isomer, unassigned) [Example 53 Peak 1], the IC50 in experiment [1] is above 1000 nM; in experiment [2] it was 1 to 10 nM. On the same counts, the results for `C=CC(=O)N(C)C1CCCN(c2cncnc2-c2ccc(CNC(=O)c3cn(C(C)(C)C)nn3)c(C)c2)C1` (centres unmarked) [Example 8, 1-(tert-butyl)-N-(2-methyl-4-(5-(3-(N-methylacrylamido)piperidin-1-yl)pyrimidin-4-yl)benzyl)-1H-1,2,3-triazole-4-carboxamide] are below 100 nM and at most 1 nM. On the same counts, the results for `C=CC(=O)N(C)C1CCCN(c2cnccc2-c2ccc(CNC(=O)c3cn(C(C)(C)C)cn3)c(C)c2)C1` (centres unmarked) [Example 43, 1-(tert-butyl)-N-(2-methyl-4-(3-(3-(N-methylacrylamido)piperidin-1-yl)pyridin-4-yl)benzyl)-1H-imidazole-4-carboxamide] are above 1000 nM and 1 to 10 nM. For the compound `C=CC(=O)N1CCCC(c2cnccc2-c2ccc(CNC(=O)c3cn(C(C)(C)C)nn3)c(C)c2)C1` (centres unmarked) [Example 23, N-(4-(3-(1-acryloylpiperidin-3-yl)pyridin-4-yl)-2-methylbenzyl)-1-(tert-butyl)-1H-1,2,3-triazole-4-carboxamide], the IC50 in experiment [1] was above 1000 nM; in experiment [2], 1 to 10 nM.

In the case of `Cc1cc(-c2ccncc2N2CCN(C(=O)/C=C/CN(C)C)CC2)ccc1CNC(=O)c1nc(C2(C)CC2)no1` [Example 73, (E)-N-(4-(3-(4-(4-(dimethylamino)but-2-enoyl)piperazin-1-yl)pyridin-4-yl)-2-methylbenzyl)-3-(1-methylcyclopropyl)-1,2,4-oxadiazole-5-carboxamide], the IC50 is 100 to 1000 nM in experiment [1] and at most 1 nM in experiment [2].

`C=CC(=O)N1CCN(c2cnccc2-c2ccc(CNC(=O)c3noc(C(C)(C)C)n3)c(C)c2)CC1` [Example 63, N-(4-(3-(4-acryloylpiperazin-1-yl)pyridin-4-yl)-2-methylbenzyl)-5-(tert-butyl)-1,2,4-oxadiazole-3-carboxamide]: the IC50 is 100 to 1000 nM in experiment [1] and at most 1 nM in experiment [2].

Regarding `C=CC(=O)N(C)C1CCCN(c2cnccc2-c2ccc(CNC(=O)c3ncn(C(C)(C)C)n3)c(C)c2)C1` (centres unmarked) [Example 40, 1-(tert-butyl)-N-(2-methyl-4-(3-(3-(N-methylacrylamido)piperidin-1-yl)pyridin-4-yl)benzyl)-1H-1,2,4-triazole-3-carboxamide], the IC50 in experiment [1] was above 1000 nM; in experiment [2], 1 to 10 nM. The corresponding values for `C=CC(=O)N1CCCC12CCN(c1cnccc1-c1ccc(CNC(=O)c3cn(C(C)(C)C)nn3)c(C)c1)C2` (centres unmarked) [Example 3, N-(4-(3-(1-acryloyl-1,7-diazaspiro[4.4]nonan-7-yl)pyridin-4-yl)-2-methylbenzyl)-1-(tert-butyl)-1H-1,2,3-triazole-4-carboxamide] are above 1000 nM and 1 to 10 nM. On to `C=CC(=O)N1CCC[C@@H](c2cnccc2-c2ccc(CNC(=O)c3noc(C4(C)CC4)n3)c(C)c2)C1` (single isomer, unassigned) [Example 28], for which the IC50 is above 1000 nM in experiment [1] and above 10 nM in experiment [2]. In experiment [2], `C=CC(=O)N1CCN(c2cncnc2-c2ccc(CNC(=O)c3cn(C(C)(C)C)nn3)c(C)c2)CC1` [Example 50, N-(4-(5-(4-acryloylpiperazin-1-yl)pyrimidin-4-yl)-2-methylbenzyl)-1-(tert-butyl)-1H-1,2,3-triazole-4-carboxamide] came in with an IC50 of at most 1 nM. The compound `C=CC(=O)N(C)C1CCCN(c2cnccc2-c2ccc(CNC(=O)c3cnc(C(C)(C)C)o3)c(C)c2)C1` (centres unmarked) [Example 38, 2-(tert-butyl)-N-(2-methyl-4-(3-(3-(N-methylacrylamido)piperidin-1-yl)pyridin-4-yl)benzyl)oxazole-5-carboxamide] displayed an IC50 in experiment [2] of at most 1 nM. Compound `C=CC(=O)N1CC2CC1CN(c1cnccc1-c1ccc(CNC(=O)c3cc(C(C)(C)C)on3)c(C)c1)C2` (centres unmarked) [Example 55, 5-tert-butyl-N-[[2-methyl-4-[3-(6-prop-2-enoyl-3,6-diazabicyclo[3.2.1]octan-3-yl)-4-pyridyl]phenyl]methyl]isoxazole-3-carboxamide] returned an IC50 in experiment [2] above 10 nM.

The record behind these values is US20240327380A1, “BTK INHIBITORS” (BIOGEN MA INC., priority 2020, published 2024).
